Data reported in patent US5998596A, “Inhibition of protein kinase activity by aptameric action of oligonucleotides” (The United States of America as represented by the …).

Test system: K562 cells
Experiment: K562 colony formation in soft agar
Assay type: cell-based, human
Settings: 50 μM ODN, two weeks, not electroporated
Experimental: K562, NIH 3T3, and A431 cells were purchased from the American Type Culture Collection (Rockville, Md.). PC3M prostate cancer cells were a generous gift from J. Trepel (National Institutes of Health, Bethesda, Md.). K562 and PC3M cells were cultured in RPMI 1640 with 10% heat-inactivated fetal bovine serum (FBS; GIBCO BRL, Grand Island, N.Y.) while NIH 3T3 and A431 cells were cultured in Dulbecco's modified Eagle's medium (Biofluids, Rockville, Md.) with 10% heat inactivated FBS. Cells were maintained at 37° C., 6% carbon dioxide with biweekly media changes. For soft agar cloning, cells were suspended in 0.3% low melting temperature agarose (SeaPlaque FMC BioProducts, Rockland, Me.) in RPMI 1640 with 10% total calf serum and maintained as above.
To evaluate the effects of these various ODNs of K562 cell growth, both growth in liquid culture and growth in soft agar were examined. […] Cells were electroporated in the presence of 50 μM ODN and kept in liquid culture. For soft agar cloning experiments, cells were not electroporated, but were grown in the presence of 50 μM ODN for two weeks. Liquid cultures were replenished with fresh medium containing 50 μM ODN. Two weeks following incubation in liquid culture, the number of trypan blue-excluding cells was determined. No effect on cell growth in liquid culture could be observed with any ODN tested (data not shown).

Substance: 5'-GTCCACCATGGCGCGGCCGGC-3' [ODN1] (phosphorothioate caps, further chemistry not given here) [21mer ODN complementary to nucleotides -12 to +9 of the p210bcr-abl mRNA, phosphorothioate capped unless otherwise specified]
- ability to form colonies in soft agar: inhibited the ability of these cells to form colonies in soft agar
